What all share (test): Minimum Inhibitory Concentration (MIC) Test
What all share (format): cell-based

Assay [1] relates to Streptococcus mutans (strain ATCC 25175). Particulars: ATCC25175, S. mutans, compound emulsified in water with PLURONIC F68, 24 hours at 37° C., none = no inhibitory activity noted. The method, then:
(§1) The MIC Test was carried out using successively lower concentrations of compounds. Sterile tryptic soy broth (50 microliters; TSB, available from BD Dfico, Becton, Dickinson and Company, Franklin Lakes, N.J.) was deposited into each well of a sterile polystyrene 96-well microtitcr plate. Into each well in the first (leftmost) column of the plate, there was then deposited a 50 microliter aliquot (of known concentration) of a compound (i.e., a compound of Formula I, or a pharmaceutically acceptable salt thereof, or comparative compound). A 50 microliter aliquot of the mixture in the first (leftmost) well in the first row of the plate was transferred to the second well in the first row. A 50 microliter aliquot of the mixture in the second well in the first row was then transferred to the third well in the first row. The compound was successively diluted (1:1 dilution at each step) by transferring a 50 microliter aliquot from one well into the next well, across the row of the plate. This procedure was repeated for each row of the plate. Then, an overnight culture of Streptococcus mutans (strain ATCC 25175) was diluted 1:100 into sterile tryptic soy broth. A 50 microliter aliquot of the diluted S. mutans culture (10^5 CFU) was deposited into each well of the microtiter plate. The plate was then incubated at 37° C. for 24 hours in a sealed humidified chamber. The plate was then visually inspected to determine the lowest concentration of compound at which no bacterial growth was visible. This value was considered to be the minimum inhibitory concentration (MIC) for the compound. The test was repeated using Staphylococcus aureus (strain ATCC 6538) and Pseudomonas aeruginosa (strain ATCC 9027) in place of S. mutans.
(§2) A sample of each of N-dodecanoyl-D-glucosamine, N-tetradecanoyl-D-glucosamine, and N-hexadecanoyl-D-glucosamine (0.100 g each) was emulsified in water (10 g) using a nonionic surfactant (0.9 g; PLURONIC F68, available from BASF Corp., Mount Olive, N.J.). A control sample was made by combining the nonionic surfactant (0.9 g) and water (10 g). Each of the four samples was evaluated using the Minimum Inhibitory Concentration (MIC) Test described above with S. mutans, S. aureus, and P. aeruginosa. In Table 5, “F68” refers to the nonionic surfactant used in the Comparative Examples, and “none” means that no inhibitory activity was noted.

The test system of assay [2] is Staphylococcus aureus (strain ATCC 6538). Particulars: S. aureus; compound emulsified in water with PLURONIC F68; 24 hours at 37° C.; none = no inhibitory activity noted. The method, then:
as §1, §2

For assay [3], the system named is Pseudomonas aeruginosa (strain ATCC 9027). Particulars: P. aeruginosa; compound emulsified in water with PLURONIC F68; 24 hours at 37° C.; none = no inhibitory activity noted. As to the method:
as §1, §2

Here are results for three molecules from US8329674B2, “Film forming dental compositions and related methods” (3M Innovative Properties Company, priority 2007, dated 2012).

≈ marks a conversion by molar mass, not a printed value.

As for `CCCCCCCCCCCC(=O)N[C@H]1C(O)O[C@H](CO)[C@@H](O)[C@@H]1O` (stereo partly drawn) [N-dodecanoyl-D-glucosamine], the MIC (in general, the lowest concentration found to suppress growth) in assay [1] is 78 µg/mL (≈ 216 µM); in assay [2], “None”; in assay [3] it was “None”.
For `CCCCCCCCCCCCCCCC(=O)N[C@H]1C(O)O[C@H](CO)[C@@H](O)[C@@H]1O` (stereo partly drawn) [N-hexadecanoyl-D-glucosamine], the MIC in assay [1] was 39 µg/mL (≈ 93.4 µM); in assay [2], “None”; in assay [3], “None”.
For `CCCCCCCCCCCCCC(=O)N[C@H]1C(O)O[C@H](CO)[C@@H](O)[C@@H]1O` (stereo partly drawn) [N-tetradecanoyl-D-glucosamine], the MIC in assay [1] was 78 µg/mL (≈ 200 µM); in assay [2] it was “None”; in assay [3], “None”.
